From patent publication US12215135B2, “PDL2 compounds” (IO BIOTECH APS, priority 2016, dated 2025)
Entries after “also recorded” stand apart in the source; their conditions may differ.

Experiments:
[1] = test system: Tumor infiltrating T-lymphocytes from two melanoma patients; assay: Intracellular cytokine staining of tumor infiltrating T-lymphocytes; assay type: cell-based, human; conditions: TILs from two melanoma patients
Description: (§1) We collected blood samples from patients with melanoma, renal cell carcinoma, non-hodgkin lymphoma, and ovarian cancer and from healthy. Samples were collected a minimum of four weeks after the termination of any kind of anti-cancer therapy. Peripheral blood mononuclear cells (PBMCs) were isolated using Lymphoprep™ (Alere A S, cat. 1114547) separation, HLA-typed and frozen in FCS with 10% DMSO (Sigma-Aldrich, cat. D5879-100ML). Tumor Infiltrating lymphocytes (TIL) from lesions from two melanoma patients were expanded using high dose IL-2 (6000 units/ml). The protocol was approved by the Scientific Ethics Committee for The Capital Region of Denmark and conducted in accordance with the provisions of the Declaration of Helsinki. Before study entry, a written informed consent from the patients was obtained.
To detect cell subpopulations that produced cytokines, we stimulated a PD-L1-specific T-cell culture (previously described (1)) and a PD-L2-specific T-cell culture with 5 μg/ml of relevant or irrelevant peptide, and incubated the cells for 5 h at 37° C. with 5% CO2. After 1 h of incubation, we added GolgiPlug (BD), diluted at 1:200. […] Stained cells were analyzed with a BD FACSCanto II flow cytometer. […]

[2] = test system: PBMCs from patients with cancer and healthy donors; assay: IFN-γ ELISPOT assay on PBMCs; assay type: cell-based, human; conditions: for CD4+ T cell responses against long peptides, IFN-γ ELISPOT assay: PBMCs from 11 patients with cancer and 11 healthy donors; for IFN-γ ELISPOT response, significance according to the DFR test / IFN-γ ELISPOT response, significance according to the DFR×2 rule: 5 selected PBMCs, patients with malignant melanoma; for specific T-cell responses, IFN-γ ELISPOT in vitro assay: PBMCs from HLA-A2+ patients with cancer, stimulated once in vitro with peptide; for immune responses, IFN-γ ELISPOT assay: PBMCs from healthy donors
Description: as §1
(§2) The IFN-γ and TNF-α ELISPOT technique was performed as described previously (3). We performed the assays according to the guidelines provided by the cancer immunotherapy immunoguiding program (CIP; cimt.eu/cimt/files/dl/cip guidelines.pdf). Unless stated otherwise, PBMCs were stimulated once in vitro with peptide prior to analysis to extend the sensitivity of the assay. To measure T-cell reactivity, nitrocellulose-bottomed 96-well plates (MultiScreen MSIPN4W; Millipore) were coated overnight at room temperature or two days at 4° C. with the relevant antibodies. The wells were washed and blocked with X-vivo medium for 2 h. The PBMCs were added at different cell concentrations in triplicate wells, with PD-L2 peptide or with control peptide, and incubated overnight. The following day, the wells were washed, and the relevant biotinylated secondary antibody (Mabtech) was added, followed by the avidin-enzyme conjugate (AP-Avidin; Calbiochem/Invitrogen Life Technologies); finally, we added the enzyme substrate, NBT/BCIP (Invitrogen Life Technologies) for visualization. The spots on the developed ELISPOT plates were analyzed on a CTL ImmunoSpot S6 Ultimate-V analyzer with Immunospot software, v5.1.
An ELISPOT response was defined, based on the guidelines and recommendations provided by CIP and Moodie et al (5). The non-parametric distribution-free resampling (DFR) and more conservative DFR×2 statistical test were used for a formal comparison between antigen-stimulated wells and negative-control wells. The ELISPOT assays were performed at least in triplicate.

[3] = test system: TAP deficient T2 cells pulsed with peptide; assay: 51chromium-release cytotoxicity assay, PD-L2-specific T-cell cultures against peptide-pulsed T2 cells; assay type: cell-based, human; conditions: cultures A and B
Description: (§3) PBMCs from a patient with melanoma were stimulated with irradiated (30 Gy) autologous DCs, which had been pulsed with PD-L205 (PD-L2(16-25)) peptide (PBL:DC ratio 10:1) and IL-7 (40 U/ml) were added (PeproTech, London, UK). The next day, IL-12 (20 U/ml) was added (PeproTech, London, UK). At weekly intervals, we performed three identical stimulations, with irradiated autologous DCs loaded with PDL205 (PD-L2(16-25)), and IL-12 (20 U/ml) added the next day. Then, at weekly intervals, we stimulated the culture three more times with irradiated autologous PBLs loaded with PDL205 (PD-L2(16-25)) (culture:PBL ratio 1:1), but the next day, we added IL-2 (120 U/ml; Proleukin, Novartis).
(§4) The culture was enriched for specific T cells, either by staining with an anti-CD137-PE antibody (BD-Biosciences) or by employing a TNF-α-enrichment and detection kit (according to the procedure by Miltenyi Biotec). Next, we performed magnetic cell isolation with a MACs microbead column (according to the procedure by Miltenyi Biotec). The sorted cells were rapidly expanded by incubating with 0.6 μg anti-CD3 antibody (eBioscience, clone OKT3) and a high dose of IL-2 (Proleukin, Novartis).
(§5) Cytotoxicity Assay PD-L1-specific and PD-L2-specific T-cell-mediated cytotoxicity was measured with conventional 51chromium-release assays, as previously described (4). Target cells were TAP deficient T2 cells, pulsed with HIV-1 pol476-484 ([…], SEQ ID NO: 26), PD-L101 (PD-L1(15-23)), or PD-L205 (PD-L2(16-25)). siRNA-Mediated PD-L2 Silencing of DCs

[4] = test system: PD-L2 T cell culture-A and -B (PD-L205-specific T cells); assay: ELISPOT assay on PD-L2-specific T-cell cultures; assay type: cell-based, human; conditions: both PD-L2 specific cultures
Description: as §2, with “v5.1. […]” for “v5.1.”

[5] = test system: PBMCs from patients with malignant melanoma; assay: TNF-α ELISPOT assay on PBMCs; assay type: cell-based, human; conditions: 5 selected PBMCs
Description: as §1
The IFN-γ and TNF-α ELISPOT technique was performed as described previously (3). We performed the assays according to the guidelines provided by the cancer immunotherapy immunoguiding program (CIP; cimt.eu/cimt/files/dl/cip guidelines.pdf). Unless stated otherwise, PBMCs were stimulated once in vitro with peptide prior to analysis to extend the sensitivity of the assay. […] The spots on the developed ELISPOT plates were analyzed on a CTL ImmunoSpot S6 Ultimate-V analyzer with Immunospot software, v5.1. […]

[6] = test system: TAP-deficient T2 cells pulsed with peptide; assay: 51Cr release assay, PD-L101-specific T-cell culture against peptide-pulsed T2 cells; assay type: cell-based, human; conditions: different effector-to-target ratios
Description: as §5

[7] = test system: PD-L2 T cell culture-A and -B (PD-L205-specific T cells); assay: Intracellular cytokine staining of PD-L2-specific T-cell cultures; assay type: cell-based, human
Description: as §3, §4
(§6) To detect cell subpopulations that produced cytokines, we stimulated a PD-L1-specific T-cell culture (previously described (1)) and a PD-L2-specific T-cell culture with 5 μg/ml of relevant or irrelevant peptide, and incubated the cells for 5 h at 37° C. with 5% CO2. After 1 h of incubation, we added GolgiPlug (BD), diluted at 1:200. After 4 h, cells were washed twice with PBS, stained with fluorochrome-conjugated antibodies specific for surface markers (CD3-APC-H7, CD4-PerCP/FITC, CD8-Pacific Blue/PerCP, and Horizon Fixable Viability Stain 510, all from BD). Cells were washed, fixed, and permeabilized with Fixation/Permeabilization and Permeabilization Buffer (eBioscience), according to the manufacturer's instructions. Cells were subsequently stained with fluorochrome-conjugated antibodies to visualize intracellular cytokines. The following antibody-fluorochrome combinations were used: IFNγ-PE-CY7/APC (eBioscience) and TNFα-APC/BV421 (eBioscience). Relevant isotype controls were used to enable correct compensation and confirm antibody specificity. Stained cells were analyzed with a BD FACSCanto II flow cytometer. Analysis was performed with BD FACSDiva Software.

T cells = conditions: previously described, refs (1), (2), (6); cited from earlier work
[8] = test system: PD-L101-specific CD8+ T cells; assay: Intracellular cytokine staining of PD-L101-specific T-cell culture; assay type: cell-based, human
Description: as §6

MIFLLLMLSLELQLHQIAALFTVTV (Peptide fragment of human PDL2) [PD-L2long2]
IFN-γ CD4+ T-cell responses, intracellular cytokine staining [1]: elicited IFN-γ CD4+ T-cell responses | CD4+ T cell responses against long peptides, IFN-γ ELISPOT assay [2]: frequent but moderate responses | IFN-γ responses, in vitro ELISPOT assay ([2]; PBMCs from four non-hodgkin lymphoma patients, DFR rule): All four patients showed responses that were statistically significant

QIAALFTVTV (Peptide fragment of human PDL2) [PD-L205, HLA-A2 restricted peptide fragment of human PD-L2]
recognition and lysis of peptide-pulsed T2 cells by PD-L2 (PD-L205)-specific T-cell cultures [3]: could indeed recognize | recognition and lysis of peptide-pulsed T2 cells by PD-L2 (PD-L205)-specific T-cell cultures ([3]; listed as PDL205): recognized and lysed | IFN-γ and TNF-α T cell responses, ELISPOT [4]: T cell responses were observed | TNF-α ELISPOT response, significance according to the DFR test [5]: statistically significant | lysis of peptide-pulsed T2 cells by PD-L101-specific T cells [6]: no cytotoxicity was observed | IFN-γ ELISPOT response, significance according to the DFR test [2]: statistically significant | IFN-γ ELISPOT response, significance according to the DFR×2 rule [2]: statistically significant | specific T-cell responses, IFN-γ ELISPOT in vitro assay [2]: detected immune responses | ex vivo IFN-γ ELISPOT response ([2]; PBMCs from four donors, directly ex vivo without prior in vitro peptide stimulation, DFR rule): one of these donors showed an ex vivo IFN-γ response that was statistically significant | immune responses, IFN-γ ELISPOT assay [2]: strong immune responses | epitope dominance in eliciting immune responses ([2]; in general, across donors): dominant PD-L2 epitope; also recorded: strongest responses | CD4+ T cells with TNF-α release in response to peptide ([7]; PD-L2 T cell culture-A): about 4.5% | CD8+ T cells with TNF-α release in response to peptide ([7]; PD-L2 T cell culture-A): ~1% | CD4+ T cells with TNF-α release in response to peptide ([7]; PD-L2 T cell culture-B): about 7% | CD8+ T cells with TNF-α release in response to peptide ([7]; PD-L2 T cell culture-B): ~2%

ILKEPVHGV (HIV-1 (HLA-A2 high affinity binding epitope)) [HIV-1 pol476-484]
recognition and lysis of peptide-pulsed T2 cells by PD-L2 (PD-L205)-specific T-cell cultures [3]: did not recognize; also recorded: did not kill | lysis of peptide-pulsed T2 cells by PD-L101-specific T cells [6]: no cytotoxicity was observed

LLNAFTVTV (PD-L101 (PDL1 peptide))
recognition and lysis of peptide-pulsed T2 cells by PD-L2 (PD-L205)-specific T-cell cultures [3]: did not kill | T cell response elicited by epitope (T cells): strong T cell response | cytokine release (IFN-γ and TNF-α) from PD-L101-specific CD8+ T cells [8]: released cytokines only in response to PD-L101 | lysis of peptide-pulsed T2 cells by PD-L101-specific T cells [6]: only lysed T2-cells pulsed with PD-L101 | spontaneous T-cell responses, IFN-γ ELISPOT test ([2]; PBMCs from patients with cancer that responded to PD-L205): did not detect any immune response

FIFIATVIAL (Peptide fragment of human PDL2) [PD-L215, HLA-A2 restricted peptide fragment of human PD-L2]
specific T-cell responses, IFN-γ ELISPOT in vitro assay [2]: detected immune responses

LLLMLSLEL (Peptide fragment of human PDL2) [PD-L201, HLA-A2 restricted peptide fragment of human PD-L2]
TNF-α ELISPOT response, significance according to the DFR test [5]: statistically significant | IFN-γ ELISPOT response, significance according to the DFR test [2]: statistically significant | IFN-γ ELISPOT response, significance according to the DFR×2 rule [2]: statistically significant | specific T-cell responses, IFN-γ ELISPOT in vitro assay [2]: detected immune responses | immune responses, IFN-γ ELISPOT assay [2]: weaker responses

SLELQLHQIAALFTVTVPKEL (Peptide fragment of human PDL2) [PD-L2long1]
CD4+ T cell responses against long peptides, IFN-γ ELISPOT assay [2]: frequent but moderate responses
